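Values below derive from 48-hour exposures of cells grown in 96-well plates, with endpoints linearly interpolated between the two concentrations bracketing the appropriate inhibition level. At the TGI there is no net growth.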

Some test systems named below: NCI-H226 lung; HCT-15 colon; UO-31 renal; HL-60(TB) leukemia; HT29 colon; PC-3 prostate; SNB-75 CNS; SK-MEL-5 melanoma; KM12 colon; SN12C renal; HS 578T breast; EKVX NSCLC.
Holding throughout (assay): NCI-60 cell line screen, 48 h

Consider `Fc1ccc2c(c1)nc1n2C(c2c(Cl)cccc2Cl)SC1` (stereo not drawn), for which the TGI with NCI-H226 lung was determined as 37.7 µM; with HCT-15 colon it was 24.4 µM; in the assay on UO-31 renal, 28.7 µM; in the assay on HL-60(TB) leukemia it was 62.3 µM; in the assay with HT29 colon it was 29.5 µM; in the assay with PC-3 prostate it was 28.3 µM. For the same compound, the TGI with SNB-75 CNS was found to be 25.9 µM; in the assay with SK-MEL-5 melanoma, 21.1 µM; with KM12 colon, 25.8 µM; in the assay on SN12C renal, 31 µM; with HS 578T breast, 34.7 µM.
For `CO/N=C(\C)c1ccc(Nc2nc3ccccc3c3occc23)cc1`, the TGI was 24 µM in the assay on NCI-H226 lung; 30.5 µM in the assay with HCT-15 colon; 35.9 µM with UO-31 renal; 50.4 µM in the assay on HL-60(TB) leukemia; 27.5 µM with EKVX NSCLC; 14.5 µM in the assay on HT29 colon. Besides, the TGI in the assay on PC-3 prostate is 30.3 µM; with SK-MEL-5 melanoma it was 29.8 µM; with KM12 colon it was 36.4 µM; in the assay with SN12C renal, 28.9 µM; in the assay with HS 578T breast, 30.7 µM.
In the case of `O=c1[nH]cnc2c1cnn2Cc1cn(CCCCO)nn1`, the TGI in the assay with NCI-H226 lung, with HCT-15 colon, with UO-31 renal, in the assay with EKVX NSCLC, in the assay with HT29 colon and in the assay on PC-3 prostate was more than 100 µM each time. Also, the TGI in the assay with SK-MEL-5 melanoma, with KM12 colon, in the assay on SN12C renal and in the assay on HS 578T breast was more than 100 µM in each case.
On to `[N-]=[N+]=Nc1c([N+](=O)[O-])c(=O)n(-c2ccccc2)c2ccccc12`, for which the TGI in the assay with NCI-H226 lung is 96.9 µM; in the assay with HCT-15 colon, 64.6 µM; in the assay with UO-31 renal, 32.2 µM; with EKVX NSCLC, 64.5 µM; with HT29 colon, more than 100 µM; in the assay with PC-3 prostate it was 83.9 µM. Further, the TGI is 68.1 µM in the assay with SNB-75 CNS; 59.5 µM with SK-MEL-5 melanoma; more than 100 µM in the assay on KM12 colon; 62.9 µM with SN12C renal; 72.1 µM in the assay on HS 578T breast.
For the compound `Cc1ccc(-c2c(C#N)c(-c3ccc(C)cc3)n(NS(=O)(=O)c3ccccc3)c(=O)c2C#N)cc1`, the TGI with NCI-H226 lung, with HCT-15 colon, in the assay on EKVX NSCLC, with HT29 colon, with PC-3 prostate and in the assay on SNB-75 CNS was more than 100 µM throughout. The TGI in the assay with SK-MEL-5 melanoma is 31.2 µM; in the assay on KM12 colon it was more than 100 µM; with SN12C renal, more than 100 µM; in the assay on HS 578T breast it was more than 100 µM.
Consider `CCOC(=O)NC(Nc1ccc(C)cc1)(C(F)(F)F)C(F)(F)F`, for which the TGI in the assay on NCI-H226 lung, with HCT-15 colon, in the assay with UO-31 renal, with HL-60(TB) leukemia, with HT29 colon and in the assay on PC-3 prostate was more than 100 µM in each case. Moreover, the TGI in the assay with SNB-75 CNS, in the assay with SK-MEL-5 melanoma, in the assay on KM12 colon, in the assay with SN12C renal and in the assay with HS 578T breast was more than 100 µM in each case.
As for `CC(C)(C)OC(=O)NC1CCCCC1NC(=O)C(=O)NC1CCCCC1NC(=O)OC(C)(C)C` (stereo not drawn), the TGI in the assay with NCI-H226 lung, in the assay on HCT-15 colon, in the assay on UO-31 renal, in the assay on HL-60(TB) leukemia, in the assay with EKVX NSCLC and in the assay with HT29 colon was more than 100 µM each time. The TGI in the assay on PC-3 prostate is more than 100 µM; with SK-MEL-5 melanoma, more than 100 µM; with KM12 colon, more than 100 µM; in the assay with SN12C renal, more than 100 µM; with HS 578T breast, 57.1 µM.
As for `C[C@H]1[C@H]2[C@H]3CC[C@@H]4[C@@]5(C)CC[C@H](O)C(C)(C)[C@@H]5CC[C@@]4(C)[C@]3(C)C[C@H](O)[C@@]2(C)C[C@H]2O[C@]21C`, the TGI is 54.8 µM with HCT-15 colon; more than 100 µM with HL-60(TB) leukemia; 73.9 µM in the assay with EKVX NSCLC; 30.2 µM in the assay on HT29 colon; 27.1 µM in the assay with PC-3 prostate; 42.6 µM in the assay with SK-MEL-5 melanoma. Also, the TGI in the assay on KM12 colon amounted to 46.1 µM; with SN12C renal, 37.8 µM; with HS 578T breast, 61 µM.
`O=C(/C=C/c1ccccc1)Oc1cccc(O)c1`: the TGI in the assay with NCI-H226 lung was more than 100 µM; in the assay with HCT-15 colon, 34.7 µM; in the assay on UO-31 renal, more than 100 µM; in the assay on HL-60(TB) leukemia it was 41.2 µM; in the assay on HT29 colon, more than 100 µM; in the assay with PC-3 prostate it was more than 100 µM. Further, the TGI is more than 100 µM in the assay on SNB-75 CNS; more than 100 µM in the assay with SK-MEL-5 melanoma; 46.3 µM in the assay on KM12 colon; more than 100 µM with SN12C renal; more than 100 µM in the assay with HS 578T breast.
For `Cc1ccc2c(c1)C(=S)N1CSCC1c1nncn1-2` (stereo not drawn), the TGI in the assay with NCI-H226 lung, in the assay with HCT-15 colon, in the assay on UO-31 renal, in the assay on EKVX NSCLC, in the assay with HT29 colon and with PC-3 prostate was more than 100 µM in each case. The TGI with SNB-75 CNS, in the assay on SK-MEL-5 melanoma, in the assay on KM12 colon, in the assay on SN12C renal and in the assay with HS 578T breast was more than 100 µM in each case.
On to `O=C(N/N=C(\c1ccccc1)c1ccccn1)NC1CCCCC1`, for which the TGI with NCI-H226 lung is 83.2 µM; in the assay on HCT-15 colon it was more than 100 µM; in the assay on UO-31 renal it was more than 100 µM; in the assay on EKVX NSCLC it was more than 100 µM; in the assay with HT29 colon, more than 100 µM; with PC-3 prostate it was more than 100 µM. Besides, the TGI with SNB-75 CNS, in the assay on SK-MEL-5 melanoma, with KM12 colon, in the assay with SN12C renal and in the assay with HS 578T breast was more than 100 µM throughout.
On to `CC1(C)[C@@H](Cn2ccc(=O)[nH]c2=O)CC[C@@]1(C)CO`, for which the TGI in the assay on NCI-H226 lung, in the assay on HCT-15 colon, in the assay with UO-31 renal, in the assay on EKVX NSCLC, in the assay on PC-3 prostate and in the assay with SNB-75 CNS was more than 100 µM throughout. The TGI in the assay on SK-MEL-5 melanoma, in the assay with KM12 colon, with SN12C renal and in the assay with HS 578T breast was more than 100 µM in each case.
Take `Cc1n(Cc2ccccc2)c2c([n+]1C)C(=O)c1ccccc1C2=O`: the TGI came to 0.514 µM with NCI-H226 lung; 16.2 µM in the assay with HCT-15 colon; 20.9 µM with UO-31 renal; 1.01 µM with EKVX NSCLC; 0.353 µM in the assay on HT29 colon; 0.999 µM in the assay on PC-3 prostate. Besides, the TGI was determined as 0.219 µM in the assay with SNB-75 CNS; 0.0509 µM in the assay on SK-MEL-5 melanoma; 0.708 µM with KM12 colon; 0.112 µM in the assay on SN12C renal; 2.14 µM in the assay with HS 578T breast.
Consider `Cc1[nH]c(=O)nc2nc3ccc(Cl)cc3c(NCCNCCO)c12`, for which the TGI is 29.8 µM in the assay on NCI-H226 lung; 31.9 µM with HCT-15 colon; 20.7 µM with UO-31 renal; more than 100 µM with HL-60(TB) leukemia; 23.8 µM in the assay with EKVX NSCLC; 21.9 µM in the assay on HT29 colon. Also, the TGI with PC-3 prostate is 27.4 µM; in the assay on SK-MEL-5 melanoma, 25.4 µM; in the assay on KM12 colon it was 23 µM; in the assay on SN12C renal, 19.8 µM; in the assay with HS 578T breast it was 31.8 µM.
As for `Cc1ccc(C2SCC(=O)N2c2ccc(-n3c(-c4ccccc4)nc4ccccc4c3=O)cc2)cc1` (stereo not drawn), the TGI in the assay with NCI-H226 lung is 57.3 µM; in the assay with HCT-15 colon, 52 µM; with UO-31 renal it was 59.1 µM; with HL-60(TB) leukemia, 64.4 µM; in the assay on HT29 colon, 61.1 µM; with PC-3 prostate, 55.4 µM. Also, the TGI in the assay on SNB-75 CNS is 90.5 µM; in the assay with SK-MEL-5 melanoma, 31.9 µM; in the assay on KM12 colon, more than 100 µM; in the assay with SN12C renal, more than 100 µM; in the assay with HS 578T breast it was 77.9 µM.
In the case of `COC(=O)c1c(O)ccc2c1c1c(n2Cc2cc(OC)cc(OC)c2)C(=O)c2ccccc2C1`, the TGI in the assay on NCI-H226 lung is more than 100 µM; with HCT-15 colon, more than 100 µM; with UO-31 renal, more than 100 µM; in the assay with HL-60(TB) leukemia it was more than 100 µM; in the assay on HT29 colon, 24.6 µM; with PC-3 prostate, 49.1 µM. Moreover, the TGI in the assay on SNB-75 CNS is 34.5 µM; in the assay with SK-MEL-5 melanoma, more than 100 µM; in the assay on KM12 colon it was more than 100 µM; in the assay with SN12C renal it was more than 100 µM; in the assay on HS 578T breast, more than 100 µM.
In the case of `CC(=O)Nc1ccc(N=Nc2c(O)c(S(=O)(=O)O)cc3cc(S(=O)(=O)O)ccc23)cc1`, the TGI in the assay on NCI-H226 lung, with HCT-15 colon, in the assay on UO-31 renal, in the assay with EKVX NSCLC, with HT29 colon and in the assay with PC-3 prostate was more than 100 µM each time. For the same compound, the TGI with SNB-75 CNS, with SK-MEL-5 melanoma, in the assay with KM12 colon, with SN12C renal and in the assay on HS 578T breast was more than 100 µM each time.
Regarding `CC1(C)C(C#N)C1C1=C(N2CCOCC2)[C@]2(C)C(OC(=O)c3ccccc3)CC[C@@H]2C1` (stereo partly drawn), the TGI in the assay with NCI-H226 lung, in the assay with HCT-15 colon, with UO-31 renal, in the assay on EKVX NSCLC, in the assay on HT29 colon and in the assay on PC-3 prostate was more than 100 µM each time. The TGI with SNB-75 CNS, in the assay on SK-MEL-5 melanoma, in the assay on KM12 colon, in the assay with SN12C renal and in the assay on HS 578T breast was more than 100 µM in each case.
For `CN(CCSCCN(C)C(=O)OC(C)(C)C)C(=O)OC(C)(C)C`, the TGI in the assay on HCT-15 colon, in the assay with UO-31 renal, in the assay on EKVX NSCLC, with HT29 colon, with PC-3 prostate and with SNB-75 CNS was more than 100 µM each time. For the same compound, the TGI in the assay with SK-MEL-5 melanoma, in the assay on KM12 colon, with SN12C renal and in the assay on HS 578T breast was more than 100 µM in each case.

Source of the values: PubChem BioAssay (NCI).
